According to US20260217708A1, “FUSED BENZAZEPINE DERIVATIVES FOR USE IN THE TREATMENT OF CANCER AND EPILEPSY” (UCB BIOPHARMA SRL, priority 2023, published 2026):

Key:
system Xc^− [1] = target: T1, system Xc^− (Homo sapiens, UniProt Q9UPY5); experiment: [^14C]L-Cystine uptake assay; assay type: cell-based; parameters: endogenous in cells; host or cells: H4 cells; settings: H4 cells, sodium-free HEPES buffer, 0.5 μM L-[14C]Cystine and 4.5 μM L-Cystine, 1 hour at 37° C.; read-out: pIC50 [^14C] L-Cystine uptake assay (converted)
T1 sequence (Q9UPY5 1-501): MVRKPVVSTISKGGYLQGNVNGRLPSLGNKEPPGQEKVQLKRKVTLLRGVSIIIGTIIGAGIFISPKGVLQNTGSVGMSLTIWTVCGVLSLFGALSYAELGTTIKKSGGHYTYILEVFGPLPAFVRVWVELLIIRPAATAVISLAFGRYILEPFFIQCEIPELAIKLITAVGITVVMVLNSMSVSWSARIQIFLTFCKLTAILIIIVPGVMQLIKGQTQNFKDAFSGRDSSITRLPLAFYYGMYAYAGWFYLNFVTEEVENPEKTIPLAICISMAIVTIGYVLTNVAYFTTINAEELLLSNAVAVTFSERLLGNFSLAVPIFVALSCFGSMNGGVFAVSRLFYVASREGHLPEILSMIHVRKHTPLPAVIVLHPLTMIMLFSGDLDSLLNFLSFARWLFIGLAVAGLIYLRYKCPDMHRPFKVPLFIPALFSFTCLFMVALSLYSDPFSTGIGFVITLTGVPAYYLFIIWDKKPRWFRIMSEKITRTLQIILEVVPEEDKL
T1 sequence (P08195 1-529 partner): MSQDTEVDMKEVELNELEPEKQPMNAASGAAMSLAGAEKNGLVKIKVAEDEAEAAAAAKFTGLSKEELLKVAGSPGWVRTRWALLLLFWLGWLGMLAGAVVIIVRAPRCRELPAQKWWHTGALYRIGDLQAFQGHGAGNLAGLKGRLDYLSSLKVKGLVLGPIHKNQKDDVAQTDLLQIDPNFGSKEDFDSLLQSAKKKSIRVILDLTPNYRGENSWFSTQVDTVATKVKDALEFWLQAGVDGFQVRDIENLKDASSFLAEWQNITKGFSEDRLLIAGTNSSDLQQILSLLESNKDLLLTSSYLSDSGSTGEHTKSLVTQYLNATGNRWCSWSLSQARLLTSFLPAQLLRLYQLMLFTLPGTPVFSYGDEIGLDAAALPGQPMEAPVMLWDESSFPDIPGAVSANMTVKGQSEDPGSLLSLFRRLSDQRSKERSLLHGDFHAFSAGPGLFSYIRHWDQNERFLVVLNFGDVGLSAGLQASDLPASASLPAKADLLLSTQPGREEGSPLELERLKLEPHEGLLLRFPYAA
Method in brief: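 Compound effect is given as pIC50, taken between controls of 1% DMSO and 50 μM Erastin. Human H4 cells were pretreated 15 min with compound in sodium-free buffer, then took up 0.5 μM [14C]cystine with 4.5 μM cold cystine for 1 hour at 37° C, read by scintillation proximity counting.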

system Xc^− [2] = target: T1, system Xc^−; experiment: Cystine-induced glutamate release assay; assay type: cell-based; parameters: endogenous in cells; host or cells: H4 cells; settings: H4 cells, sodium-free HEPES buffer, 50 μM L-Cystine, 2 hours, Amplex Red glutamate readout; read-out: pIC50 Cystine-induced glutamate release assay (converted)
Method in brief: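 IC50 (reported as pIC50) normalized to DMSO 1% and Erastin 50 μM controls, from Amplex Red fluorescence of glutamate exported into supernatant. H4 cells were washed into sodium-free buffer to exclude EAAT transport, then given compound with 50 μM L-cystine for 2 h in the incubator.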

IC50 (system Xc^− [1]) [nM] | IC50 (system Xc^− [2]) [nM] | SMILES
100 to 501 | 100 to 501 | Cc1cc2c(c(F)n1)-c1cccc(CO)c1CC(=O)N2CC(=O)Nc1ccc(C(F)(F)F)cc1 [#165, 2-[1-fluoro-8-(hydroxymethyl)-3-methyl-6-oxo-7H-pyrido[4,3-d][3]benzazepin-5-yl]-N-[4-(trifluoromethyl)phenyl]acetamide]
< 15.8 | 39.8 to 100 | Cc1cc2c(c(F)n1)-c1ccc(C)nc1[C@@H](C)C(=O)N2CC(=O)Nc1ccc(C(F)(F)F)cc1 (single isomer, unassigned) [#204, Enantiomer (10R) or (10S) of 2-[3-fluoro-5,10,13-trimethyl-9-oxo-4,8,12-triazatricyclo[9.4.0.0^2,7]pentadeca-1(11),2(7),3,5,12,14-hexaen-8-yl]-N-[4-(trifluoromethyl)phenyl]acetamide]
< 15.8 | 15.8 to 39.8 | CC1C(=O)N(CC(=O)Nc2ccc(Cl)c(F)c2)c2ccnc(F)c2-c2cc(F)cnc21 (single isomer, unassigned) [#419, N-(4-chloro-3-fluoro-phenyl)-2-[3,14-difluoro-10-methyl-9-oxo-4,8,12-triazatricyclo[9.4.0.0^2,7]pentadeca-1(15),2,4,6,11,13-hexaen-8-yl]acetamide]
100 to 501 | 100 to 501 | COc1nc(C)cc2c1-c1cccnc1CC(=O)N2CC(=O)Nc1ccc(C(F)(F)F)nc1 [#79, 2-(3-methoxy-5-methyl-9-oxo-4,8,12-triazatri-cyclo[9.4.0.0^2,7]penta-deca-1(11),2,4,6,12,14-hexaen-8-yl)-N-[6-(tri-fluoromethyl)-3-pyridyl] acetamide]
< 15.8 | 39.8 to 100 | Cc1cc2c(c(F)n1)-c1cccnc1[C@@H](CO)C(=O)N2CC(=O)Nc1ccc(C(F)(F)F)cc1 (single isomer, unassigned) [#206, Enantiomer (10S) or (10R) of 2-[(3-fluoro-10-(hydroxymethyl)-5-methyl-9-oxo-4,8,12-triazatricyclo[9.4.0.0^2,7]pentadeca-1(11),2(7),3,5,12,14-hexaen-8-yl]-N-[4-(trifluoromethyl)phenyl]acetamide]
< 15.8 | 15.8 to 39.8 | Cc1cc2c(c(F)n1)-c1cccnc1C(C)C(=O)N2CC(=O)Nc1ccc(C2CC2)c(F)c1 (stereo not drawn) [#135, N-(4-cyclopropyl-3-fluoro-phenyl)-2-(3-fluoro-5,10-dimethyl-9-oxo-4,8,12-triazatricyclo[9.4.0.0^2,7]pentadeca-1(11),2(7),3,5,12,14-hexaen-8-yl)acetamide]
100 to 501 | 100 to 501 | Cc1cc2c(cn1)-c1c(Cl)cccc1CC(=O)N2CC(=O)Nc1ccc(C(F)(F)F)cc1 [#32, 2-(11-chloro-3-methyl-6-oxo-7H-pyrido[4,3-d][3]benzazepin-5-yl)-N-[4-(trifluoro-methyl)phenyl] acetamide]
100 to 501 | 39.8 to 100 | CC1C(=O)N(CC(=O)Nc2ccc(Cl)c(F)c2)c2cc(CN3CC(C)(O)C3)ccc2-c2cccnc21 (stereo not drawn) [#343, N-(4-chloro-3-fluoro-phenyl)-2-[9-[(3-hydroxy-3-methyl-azetidin-1-yl)methyl]-5-methyl-6-oxo-5H-pyrido[2,3d][1]benzazepin-7-yl]acetamide]
< 15.8 | < 15.8 | CC1C(=O)N(CC(=O)Nc2ccc(Cl)c(F)c2)c2cc(OCCO)nc(F)c2-c2cccnc21 (stereo not drawn) [#375, N-(4-chloro-3-fluoro-phenyl)-2-[3-fluoro-5-(2-hydroxyethoxy)-10-methyl-9-oxo-4,8,12-triazatricyclo[9.4.0.0^2,7]pentadeca-1(15),2,4,6,11,13-hexaen-8-yl]acetamide]
100 to 501 | 39.8 to 100 | Cc1cc2c(c(F)n1)-c1ccnn1C(C)C(=O)N2CC(=O)Nc1ccc(C(F)F)cc1 (single isomer, unassigned) [#221, Enantiomer (7S) or (7R) of N-[4-(difluoromethyl)phenyl]-2-[14-fluoro-7,12-dimethyl-8-oxo-5,6,9,13-tetrazatricyclo[8.4.0.0^2,6]tetradeca-1(14),2,4,10,12-pentaen-9-yl]acetamide]
15.8 to 39.8 | 15.8 to 39.8 | COc1nc(C)cc2c1-c1ccccc1CC(=O)N2CC(=O)Nc1ccc(C(F)(F)F)cc1 [#390, 2-(1-methoxy-3-methyl-6-oxo-7H-pyrido[4,3-d][3]benzazepin-5-yl)-N-[4-(trifluoromethyl)phenyl]acetamide]
39.8 to 100 | 100 to 501 | N#Cc1ccc2c(c1F)-c1cccnc1CC(=O)N2CC(=O)Nc1ccc(C(F)(F)F)cc1 [#54, 2-(10-cyano-11-fluoro-6-oxo-5H-pyrido[2,3-d][1]benzazepin-7-yl)-N-[4-(trifluoromethyl)-phenyl]acetamide]
15.8 to 39.8 | 39.8 to 100 | CC1C(=O)N(CC(=O)Nc2ccc(C(F)F)cc2)c2cc(N3CCC(F)(F)C3)nc(F)c2-c2cccnc21 (single isomer, unassigned) [#278, N-[4-(difluoromethyl)phenyl]-2-[5-(3,3-difluoropyrrolidin-1-yl)-3-fluoro-10-methyl-9-oxo-4,8,12-triazatricyclo[9.4.0.0^2,7]pentadeca-1(15),2,4,6,11,13-hexaen-8-yl]acetamide]
39.8 to 100 | 15.8 to 39.8 | Cc1cc2c(c(F)n1)-c1cccnc1[C@@H](C)C(=O)N2CC(=O)Nc1ccc2c(c1)CC(F)(F)C2 [#237, N-(2,2-difluoroindan-5-yl)-2-[(10R)-3-fluoro-5,10-dimethyl-9-oxo-4,8,12-triazatricyclo[9.4.0.0^2,7]pentadeca-1(15),2,4,6,11,13-hexaen-8-yl]acetamide]
15.8 to 39.8 | 15.8 to 39.8 | CC1C(=O)N(CC(=O)Nc2ccc(C(F)F)cc2)c2cc(C#N)cc(Cl)c2-c2ccnn21 (stereo not drawn) [#388, 2-(11-chloro-9-cyano-5-methyl-6-oxo-5H-pyrazolo[1,5-d][1,4]benzodiazepin-7-yl)-N-[4-(difluoromethyl)phenyl]acetamide]
15.8 to 39.8 | 100 to 501 | Cc1cc2c(c(Cl)n1)-c1cncc(F)c1CC(=O)N2CC(=O)Nc1ccc(C(F)(F)F)cc1 [#160, 2-(3-chloro-12-fluoro-5-methyl-9-oxo-4,8,14-triazatricyclo[9.4.0.0^2,7]pentadeca-1(11),2(7),3,5,12,14-hexaen-8-yl)-N-[4-(trifluoromethyl)phenyl]acetamide]
< 15.8 | < 15.8 | O=C(CN1C(=O)Cc2ccccc2-c2c1cc(C(F)F)nc2Cl)Nc1ccc(C(F)F)cc1 [#339, 2-[1-chloro-3-(difluoromethyl)-6-oxo-7H-pyrido[4,3-d][3]benzazepin-5-yl]-N-[4-(difluoromethyl)phenyl]acetamide]
15.8 to 39.8 | 15.8 to 39.8 | Cc1cc2c(c(F)n1)-c1cccnc1[C@@H](C)C(=O)N2CC(=O)Nc1ccc2cnc(F)cc2c1 (single isomer, unassigned) [#239]
39.8 to 100 | 15.8 to 39.8 | Cc1cc2c(c(F)n1)-c1cccnc1[C@@H](C)C(=O)N2CC(=O)Nc1ccc2c(Cl)nccc2c1 (single isomer, unassigned) [#240]
15.8 to 39.8 | 39.8 to 100 | CC1C(=O)N(CC(=O)Nc2ccc(C(F)(F)F)cc2)c2ccnc(F)c2-c2cccnc21 (single isomer, unassigned) [#187, enantiomer (10R) or (10S) of 2-[3-fluoro-10-methyl-9-oxo-4,8,12-triazatricyclo[9.4.0.0^2,7]pentadeca-1(11),2(7),3,5,12,14-hexaen-8-yl]-N-[4-(trifluoromethyl)phenyl]acetamide]
< 15.8 | 15.8 to 39.8 | Cc1cc2c(c(F)n1)-c1cccnc1C(C)C(=O)N2CC(=O)Nc1ccc(Cl)c(F)c1 (stereo not drawn) [#90, N-(4-chloro-3-fluoro-phenyl)-2-(3-fluoro-5,10-dimethyl-9-oxo-4,8,12-triazatricyclo[9.4.0.0^2,7]pentadeca-1(11),2(7),3,5,12,14-hexaen-8-yl)acetamide]
